The text below walks through data of US20240358707A1, “INHIBITORS OF BRUTON'S TYROSINE KINASE” (Pharmacyclics LLC, priority 2006, published 2024).

Test [1] concerns BCR-activated calcium flux in Ramos cells. In words: BCR-induced calcium flux assay in Ramos cells. The conditions noted are these: Homo sapiens, read-out: Ramos Cell Ca Flux IC50. Background: A change in cytosolic calcium serves as a functional read-out for many receptors and channels.
Test [2] concerns the target Btk (Homo sapiens (Human), UniProt Q06187). In words: Btk acellular kinase assay (TR-FRET). The conditions noted are these: relative to compound 4. The test is classed as biochemical.
Test [3] relates to DHL-6 cells. The test is described as follows: DHL-6 cell growth (Alamar Blue assay). The test is classed as cell-based. On the technique in general: The colour change of resazurin is a common sign of viable cells or microbes.

Sequence of Btk (Q06187 whole entry): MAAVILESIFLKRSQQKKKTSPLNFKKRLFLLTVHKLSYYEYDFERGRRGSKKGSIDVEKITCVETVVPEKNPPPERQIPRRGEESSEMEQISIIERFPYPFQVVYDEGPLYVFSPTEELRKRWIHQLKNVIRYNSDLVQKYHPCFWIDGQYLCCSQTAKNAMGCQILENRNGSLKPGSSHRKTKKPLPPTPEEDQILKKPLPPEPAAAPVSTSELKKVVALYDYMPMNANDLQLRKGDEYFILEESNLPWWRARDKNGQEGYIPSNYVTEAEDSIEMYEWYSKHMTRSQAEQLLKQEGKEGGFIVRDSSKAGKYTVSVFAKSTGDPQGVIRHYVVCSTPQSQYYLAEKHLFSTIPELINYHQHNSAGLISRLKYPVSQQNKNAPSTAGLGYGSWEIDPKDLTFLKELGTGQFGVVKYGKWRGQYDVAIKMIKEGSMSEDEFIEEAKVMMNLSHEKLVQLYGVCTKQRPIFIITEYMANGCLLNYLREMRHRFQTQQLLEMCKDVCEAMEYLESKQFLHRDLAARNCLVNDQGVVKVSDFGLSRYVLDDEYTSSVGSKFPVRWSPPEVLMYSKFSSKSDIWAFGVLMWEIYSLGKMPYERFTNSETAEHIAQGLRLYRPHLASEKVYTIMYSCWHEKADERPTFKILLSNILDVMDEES

As usually defined, the IC50 is the concentration at which inhibition is half-maximal. With `C=CC(=O)N[C@H]1CC[C@@H](n2nc(-c3ccc(Oc4ccccc4)cc3)c3c(N)ncnc32)CC1` [Compound 10, N-((1s,4s)-4-(4-amino-3-(4-phenoxyphenyl)-1H-pyrazolo[3,4-d]pyrimidin-1-yl)cyclohexyl)acrylamide], the IC50 in test [1] came out at 3 nM.

On to `C/C=C/C(=O)N1CCCC(n2nc(-c3ccc(Oc4ccccc4)cc3)c3c(N)ncnc32)C1` (stereo not drawn) [Compound 5, (E)-1-(3-(4-amino-3-(4-phenoxyphenyl)-1H-pyrazolo[3,4-d]pyrimidin-1-yl)piperidin-1-yl)but-2-en-1-one], for which the “Fold less potent than compound 4 (Btk)” value in test [2] is listed as 28 fold. For the same compound, the IC50 in test [1] amounted to 89 nM.

With `C=CC(=O)N1CC[C@H](n2nc(-c3ccc(Oc4ccccc4)cc3)c3c(N)ncnc32)C1` [Compound 12, 1-((S)-3-(4-amino-3-(4-phenoxyphenyl)-1H-pyrazolo[3,4-d]pyrimidin-1-yl)pyrrolidin-1-yl)prop-2-en-1-one], the IC50 in test [1] was determined as 90 nM.

Take `C#CC(=O)N1CCCC(n2nc(-c3ccc(Oc4ccccc4)cc3)c3c(N)ncnc32)C1` (stereo not drawn) [Compound 8, 1-(3-(4-amino-3-(4-phenoxyphenyl)-1H-pyrazolo[3,4-d]pyrimidin-1-yl)piperidin-1-yl)prop-2-yn-1-one]: the IC50 in test [1] is 9 nM.

`C=CS(=O)(=O)N1CCCC(n2nc(-c3ccc(Oc4ccccc4)cc3)c3c(N)ncnc32)C1` (stereo not drawn) [Compound 6, 1-(3-(4-amino-3-(4-phenoxyphenyl)-1H-pyrazolo[3,4-d]pyrimidin-1-yl)piperidin-1-yl)sulfonylethene]: the IC50 in test [1] is 92 nM.

On to `CN(C)C/C=C/C(=O)N1CCC[C@@H](n2nc(-c3ccc(Oc4ccccc4)cc3)c3c(N)ncnc32)C1` [Compound 15, (E)-1-(3-(4-amino-3-(4-phenoxyphenyl)-1H-pyrazolo[3,4-d]pyrimidin-1-yl)piperidin-1-yl)-4-(dimethylamino)but-2-en-1-one], for which the “Growth of DHL-6 cells” value in test [3] (24 h treatment) and in test [3] (48 h treatment) was “inhibits growth” each time. Moreover, the IC50 in test [1] amounted to 36 nM.

For `C=CC(=O)N1CC[C@@H](n2nc(-c3ccc(Oc4ccccc4)cc3)c3c(N)ncnc32)C1` [Compound 11, 1-((R)-3-(4-amino-3-(4-phenoxyphenyl)-1H-pyrazolo[3,4-d]pyrimidin-1-yl)pyrrolidin-1-yl)prop-2-en-1-one], the IC50 in test [1] was 24 nM.

On to `C=CC(=O)N1CCC(n2nc(-c3ccc(Oc4ccccc4)cc3)c3c(N)ncnc32)CC1` [Compound 9, 1-(4-(4-amino-3-(4-phenoxyphenyl)-1H-pyrazolo[3,4-d]pyrimidin-1-yl)piperidin-1-yl)prop-2-en-1-one], for which the IC50 in test [1] came out at 48 nM.

With `Nc1ncnc2c1c(-c1ccc(Oc3ccccc3)cc1)nn2C1CCCN(C(=O)CCl)C1` (stereo not drawn) [Compound 7], in test [1], the IC50 amounted to 9 nM.
